Read-outs that look alike come from different tables or passages of the source.

For test [1], the system named is hypertrophied bladder (detrussor) smooth muscle. Kind of test: Inhibition of spontaneous contractions in vivo (conscious female rats with hypertrophied bladders, cystometry). Set-up: species or system Female Sprague-Dawley rats. The conditions noted are these: hypertrophied rat bladder model. The text has this: In addition, we tested the ability of compounds to inhibit the hyperactivity of hypertrophied bladder (detrussor) smooth muscle in conscious female rats with hypertrophied bladders and thereby alleviate urinary incontinence in rats according to the following protocol described by Malmgren (A. Malmgren, K. E. Andersson, C. Sjogren, P. O. Andersson, Effects of pinacidil and Cromakalim (BRL 34915) on Bladder Function in Rats with Detrusor Instability, J. Urol. 142: 1134, 1989.):
Female Sprague-Dawley rats, ranging in weight from 190-210 g are used. Up to 25 animals are prepared each time. After developemnt of bladder hypertrophy 4-8 animals are used per test.
Compounds are dissolved in PEG-200 and administered by gastric gavage or intraveneously in a volume of 5 ml/kg. For primary screening all drugs are administered at the arbitrary dose of 10 mg/kg p.o. to groups of 4 rats.
The animals are anesthetized with halothane. Through a midline incision the bladder and urethra are exposed and a ligature of 4-0 silk is tied around the proximal urethra in the presence of a stainless steel rod (1 mm diameter) to produce a partial occlusion. The rod is then removed. The abdominal region is closed using surgical staples and each rat receives 150,000 units of bicillin C-R. The animals ar allowed six weeks to develop sufficient bladder hypertrophy. After six weeks, the ligature is removed under halothane anesthesia and a catheter (PE 60) with a cuff is placed in the dome of the bladder and secured with a purse string suture. The catheter is tunneled under the skin and exteriorized through an opening in the back of the neck. The abdominal incision is sutured and the free end of the catheter sealed. In order to prevent infections the rats receive an injection of bicillin C-R (150000 units/rat). Two days later the animals are used in cystometrical evaluations, The animals are placed in the metabolic cages and the catheter is attached (using a "T" connector) to a Statham pressure transducer (Model P23Db) and to a Harvard infusion pump. A plastic beaker attached to a force displacement transducer (Grass FTO3) is placed under the rat's cage to collect and record urine volume. Animals are allowed 15-30 min t rest before the saline infusion (20 ml/hr for 20 minutes) is started for the first cystometry period. Two hours after the first cystometry period, the rats are dosed with the vehicle or the test compound and one hour later a second cystometry is performed.
The following urodynamic variables are recorded:
Basal bladder pressure=the lowest bladder pressure during cystometry
Threshold pressure=bladder pressure immediately prior to micturition
Micturition volume=volume expelled
Micturition pressure=peak pressure during voiding
Spontaneous activity=mean amplitude of bladder pressure fluctuations during filling
Presentation of results: The mean value of each variable is calculated before and after compound administration. For each compound the changes in the variables measured are compared to the values obtained before treatment and expressed as percent inhibition. The data are also subjected to 2-way analysis of variance to determine significant (p<0.05) changes in the variable measured.
Criteria for Activity: The most characteristic finding in this rat model is spontaneous bladder contractions which develop during filling. The compounds which inhibit spontaneous contractions by at least 50% at 10 mg/kg p.o. or i.v. (arbitrary chosen dose) are considered active.

The test system of test [2] is Isolated Rat Bladder Strips. Nature of the test: Inhibition of contractions in isolated rat bladder strips (KCl-enhanced contractile activity; smooth muscle relaxation). The class given is cell-based, Sprague-Dawley rats. The following applies: for inhibition at 30 µM: read-out: Percent inhibition at 30 μM (I). In short, it runs like this: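 Bladder strips from Sprague-Dawley rats were held in 37 °C PSS (pH 7.4, 95% O2/5% CO2) at 1.5 g resting tension with isometric force recording. Contractions were enhanced by an extra 15 mM KCl, then cumulative compound concentrations were added, each measured over the last minute of 30 min. IC50 is 50% inhibition of pre-drug contractile activity from the concentration-response curve.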

[3] abbreviates: 0.5 h, isolated rat bladder strips, 15 mM additional KCl, 30 minute challenge, read-out: IC50 (50% inhibition of pre-drug contractile activity).

As usually defined, the IC50 is the concentration that gives 50% inhibition. Regarding `CC(C)(C)Nc1c(NCc2ccc(C#N)cc2Cl)c(=O)c1=O` [Example 2, 4-[(2-tert-Butylamino-3,4-dioxo-cyclobut-1-enylamino)-methyl]-3-chloro-benzonitrile], the “% Red (F): percent reduction in the total number of spontaneous contractions” value (“% Red (F): percent reduction” for short) in test [1] (1 mg/kg p.o., prior lot of this compound (mp 234-236° C.)) is listed as -34 ± 11%; in test [1] (3 mg/kg p.o., prior lot of this compound (mp 234-236° C.)), -49 ± 8%; in test [1] (10 mg/kg p.o., prior lot of this compound (mp 234-236° C.)), -93 ± 3%. The IC50 in test [2] (setting [3]) turned out to be 140 ± 20 nM; in test [2] (Rattus norvegicus, prior lot (mp 234-236° C., softens 225° C.), n = 4, read-out: IC50 of a prior lot) it was 570 ± 340 nM.

As a reminder, the inhibition is the share of the control response that was lost under treatment. With `CC(Nc1c(NCc2ccc(C#N)cc2Cl)c(=O)c1=O)C(C)(C)C` (centres unmarked) [Example 6, 3-Chloro-4-{[3,4-dioxo-2-(1,2,2-trimethyl-propylamino)-cyclobut-1-enylamino]-methyl}-benzonitrile], the “% Red (F): percent reduction” value in test [1] (3 mg/kg p.o.) was -51 ± 6%; in test [1] (10 mg/kg p.o.), -71 ± 3%. For the same compound, the concentration for half-maximal inhibition (IC50) in test [2] (setting [3]) stood at 660 ± 200 nM. In addition, the inhibition at 30 µM in test [2] (Rattus norvegicus) turned out to be 41.2%.

`Cc1ccc(CNc2c(NC(C)(C)C)c(=O)c2=O)c(C)c1` [Example 8, 3-tert-Butylamino-4-(2,4-dimethyl-benzylamino)-cyclobut-3-ene-1,2-dione]: the “% Red (F): percent reduction” value in test [1] (3 mg/kg p.o.) is recorded as -38 ± 7%. In test [2] (setting [3]), the half-maximal inhibitory concentration (IC50) is 630 ± 150 nM.

As for `CCc1cc(C#N)ccc1CNc1c(NC(C)(C)C)c(=O)c1=O` [Example 27, 4-[(2-tert-Butylamino-3,4-dioxo-cyclobut-1-enylamino)-methyl]-3-ethyl-benzonitrile], in test [1] (10 mg/kg p.o.), the “% Red (F): percent reduction” value is -20 ± 22%. In addition, in test [2] (setting [3]), the IC50 stood at 240 ± 30 nM.

For `C[C@@H](Nc1c(NCc2ccc(C#N)cc2Cl)c(=O)c1=O)C(C)(C)C` [Example 30, (R)-3-Chloro-4-{[3,4-dioxo-2-(1,2,2-trimethyl-propylamino)-cyclobut-1-enylamino]-methyl}-benzonitrile], the “% Red (F): percent reduction” value in test [1] (3 mg/kg p.o.) is on record as -68 ± 10%. In test [2] (setting [3]), the IC50 was determined as 180 ± 30 nM. Moreover, the inhibition at 30 µM in test [2] (Rattus norvegicus) is 23%.

As for `Cc1cccc(Cl)c1CNc1c(NC(C)(C)C)c(=O)c1=O` [Example 31, 3-tert-Butylamino-4-(2-chloro-6-methyl-benzylamino)-cyclobut-3-ene-1,2-dion], the “% Red (F): percent reduction” value in test [1] (10 mg/kg p.o.) was -38 ± 13%. For the same compound, the IC50 in test [2] (setting [3]) is 1100 ± 300 nM.

Consider `Cc1cc(Br)cc(C)c1CNc1c(NC(C)(C)C)c(=O)c1=O` [Example 36, 3-(4-Bromo-2,6-dimethyl-benzylamino)-4-tert-butylamino-cyclobut-3-ene-1,2-dione], for which the “% Red (F): percent reduction” value in test [1] (3 mg/kg p.o.) is reported as -83 ± 9%. Moreover, the IC50 in test [2] (setting [3]) came out at 290 ± 20 nM.

Regarding `CCC(C)(C)Nc1c(NCc2ccc(C#N)cc2Cl)c(=O)c1=O` [Example 76], in test [1] (3 mg/kg p.o.), the “% Red (F): percent reduction” value is -57 ± 12%. Besides, the half-maximal inhibitory concentration (IC50) was 60 ± 14 nM in test [2] (setting [3]) and 130 ± 30 nM in test [2] (Rattus norvegicus, second lot (mp 215.5-216.0° C., softens 211.5° C.), n = 6, read-out: IC50 of a second lot).

The values are drawn from patent publication US5780505A, “Substituted N-arylmethylamino derivatives of cyclobutene-3, 4-diones” (American Home Products Corporation, priority 1997, dated 1998).
